Measured values: the OPERA property sets (Mansouri et al. 2018)

Settings: not given
In the case of CCOc1ccc([Si](C)(C)CCCc2ccc(F)c(Oc3ccccc3)c2)cc1, the log10 vapour pressure (mmHg) is reported as -7.73. In the case of O=C(F)C(F)(F)F, the boiling point is reported as -59 °C and the log10 Henry constant (atm·m³/mol) is reported as -3.48. Work on FC(Cl)C(F)(F)F (centres undefined) yielded a boiling point of -12 °C and a log10 vapour pressure (mmHg) of 3.46. For c1ccc(-c2nc3ccccc3s2)cc1, the boiling point was 371 °C and the melting point was 115 °C. With Clc1ccc2nccnc2c1 the melting point was 64 °C. In the case of O=C(O)COCC(=O)O, the melting point is reported as 148 °C. With CCOCCCO the melting point was 160 °C. In the case of O=Cc1ccccc1O, the boiling point is reported as 197 °C, the log10 vapour pressure (mmHg) is reported as -0.227 and the melting point is reported as -7 °C. O=C(NC(=O)c1ccccc1)c1ccccc1 showed a melting point of 152 °C. For CC(=O)C(=O)O, the log10 Henry constant (atm·m³/mol) was -8.49, the log10 vapour pressure (mmHg) was 0.111 and the melting point was 13.8 °C. With CCCCCCC(C)N (centres undefined) the boiling point was 165 °C. O=C(O)c1ccccc1Nc1ccccc1 gave a melting point of 184 °C. Compound FC(F)(Cl)C(F)(F)Cl has a boiling point of 3.8 °C, a log10 vapour pressure (mmHg) of 3.3 and a melting point of -94 °C. Compound COc1ccc(C(C)=O)c(OC)c1OC has a boiling point of 296 °C and a melting point of 15.8 °C. For C=CC(C)=O, the boiling point was 81.4 °C, the log10 Henry constant (atm·m³/mol) was -4.33 and the ready biodegradability was “not readily biodegradable”. CCOCCl showed a boiling point of 83 °C. Compound CNCC(O)c1ccc(O)cc1 (centres undefined) has a melting point of 184 °C. With C[C@]12CC[C@H](O[C@@H]3O[C@H](CO[C@@H]4O[C@H](CO)[C@@H](O)[C@H](O)[C@H]4O)[C@@H](O)[C@H](O)[C@H]3O)C[C@@H]1CC[C@@H]1[C@@H]2CC[C@]2(C)[C@@H](C3=CC(=O)OC3)CC[C@]12O the melting point was 269 °C. Work on O=C1OCc2c(Cl)c(Cl)c(Cl)c(Cl)c21 yielded a log10 Koc (L/kg) of 3.3, a log10 vapour pressure (mmHg) of -7.65 and a melting point of 210 °C. CCCCC(=O)OCC(=O)[C@H]1[C@H](C)C[C@H]2[C@@H]3C[C@H](F)C4=CC(=O)C=C[C@]4(C)[C@@]3(F)[C@@H](O)C[C@@]21C showed a melting point of 195 °C. For CCCCCCCOC(=O)CCC, the boiling point was 226 °C and the melting point was -57.5 °C. Work on CC(=O)c1c(C)c([N+](=O)[O-])c(C(C)(C)C)c([N+](=O)[O-])c1C yielded a melting point of 136 °C. With C=C[C@@H]1C2=CCOC(=O)C2=CO[C@H]1O[C@@H]1O[C@H](CO)[C@@H](O)[C@H](O)[C@H]1O the melting point was 191 °C. With COc1nccnc1NS(=O)(=O)c1ccc(N)cc1 the melting point was 176 °C. In the case of ClC(Cl)(Cl)C1CO1 (centres undefined), the boiling point is reported as 149 °C. Nc1ccc(C(=O)O)c(N)c1 showed a melting point of 140 °C. In the case of Clc1c(Cl)c(Cl)c2ccccc2c1Cl, the log10 Koa is reported as 8.3, the log10 vapour pressure (mmHg) is reported as -5.54 and the melting point is reported as 198 °C. Compound CCOP(=O)(N=C1SCCS1)OCC has a melting point of 41 °C. For Clc1cccc2cccc(Cl)c12, the melting point was 89 °C. For CCCCCC[C@H](C)S, the log10 vapour pressure (mmHg) was -0.147. Compound CCCCCCCCCCCCCC(=O)O has a boiling point of 326 °C, a log10 vapour pressure (mmHg) of -5.85 and a melting point of 53.9 °C. For CCN(CC)CC#N, the boiling point was 170 °C. CCCCCOCC gave a boiling point of 118 °C. In the case of CCOC(=O)Cc1cccc2ccccc12, the log10 Koc (L/kg) is reported as 2.48 and the melting point is reported as 88.5 °C. Compound Cc1cccc(C)c1Br has a boiling point of 204 °C. Work on CCC(O)(CC)C(C)C yielded a boiling point of 160 °C. CCN(CC)CC(=O)OCC(=O)[C@@]1(O)CC[C@H]2[C@@H]3CCC4=CC(=O)CC[C@]4(C)[C@H]3[C@@H](O)C[C@@]21C gave a melting point of 162 °C. With C=C(C)C#N the boiling point was 90.3 °C, the log10 vapour pressure (mmHg) was 1.85 and the melting point was -35.8 °C. The ready biodegradability was “readily biodegradable”. Work on O=C1CC=CCC1 yielded a boiling point of 170 °C. O=[N+]([O-])c1ccc(Cl)c(Cl)c1 showed a boiling point of 256 °C, a log10 Henry constant (atm·m³/mol) of -5.09 and a log10 Koc (L/kg) of 2.53. The log10 vapour pressure (mmHg) was -1.99, the melting point was 43 °C and the ready biodegradability was “not readily biodegradable”. For CC(C)(O)C(F)(F)F, the boiling point was 81 °C. Compound C=CCc1cccc2ccccc12 has a boiling point of 266 °C. In the case of C[C@H](NC(=O)c1ccccc1)C(=O)O (racemic), the melting point is reported as 166 °C. In the case of CN=C=O, the boiling point is reported as 39.5 °C, the log10 vapour pressure (mmHg) is reported as 2.54 and the melting point is reported as -45 °C. C#CCCCCC showed a boiling point of 99.7 °C, a log10 vapour pressure (mmHg) of 1.72 and a melting point of -81 °C.

Same assay, conditions: fish
With ClC(Cl)=C(Cl)c1c(Cl)c(Cl)c(Cl)c(Cl)c1Cl the log10 BCF was 3.91 and the log10 biotransformation half-life (days) was 2.04. Clc1c(Cl)c(Cl)c2ccccc2c1Cl gave a log10 BCF of 3.7 and a log10 biotransformation half-life (days) of 1.2. For Clc1cccc2cccc(Cl)c12, the log10 BCF was 3.79. Work on O=[N+]([O-])c1ccc(Cl)c(Cl)c1 yielded a log10 BCF of 1.71 and a log10 biotransformation half-life (days) of -0.27.
